“And” between values parts separate entries of the source, which are not always exact repeats. Equal entries are not always repeated.
Key:
[1] = system: DNA synthesis in HEK293T cells; experiment: EdU/BrdU dual-pulse DNA-replication efficiency assay; type: cell-based, human; conditions: wt-Ube2V2 cells, post T-REX
Protocol: 4.8×10^5 cells were plated in glass-bottomed dishes (In Vitro Scientific) and allowed to grow for 24 h. Cells were transfected with the indicated plasmid and allowed to grow for another 24 h. Cells were then treated with 3 μM Ht-PreHNE no alkyne for 2.5 h followed by two rinses with serum-free medium. After this time, 20 μM EdU (final concentration) was added into cell culture media for 30 min before the 3rd rinse. The cells were rinsed another two times before light shining. 2.5 h post light irradiation, cells were treated with 50 μM BrdU for 30 min at 37° C. Then the cells were fixed with −20° C. pre-chilled MeOH for 20 min and then carried on to immunofluorescence assay as described elsewhere.
Whether DNA-synthesis stall (that occurs in response to many DNA damage events) accompanies C69-specific Ube2V2-HNEylation was investigated. A dual-pulse assay was used, which involves sequential, timed pulsing with two orthogonal DNA-labeling agents (EdU, followed by BrdU) that can be detected by fluorescence imaging (FIG. 13D). This assay is very accurate, because DNA-synthesis is measured over a defined time range, allowing a good estimate of synthesis-rate to be determined.

[2] = system: Nrf2-AR pathway; experiment: Flow cytometry ARE-GFP reporter assay; type: cell-based, human
Protocol: (i) Transient transfection using TransIT-2020. Perform the transfection as described in Step 40 Option (C) (i). Briefly: Transfect the cells with ARE:GFP, pFN21a-Halo-Keap1, and pcDNA3.1 myc-Nrf2 in a 3:1:1 ratio by mass. For transient transfection of cells in a single well of a 48-well plate, in 26 μL of antibiotic-free, serum-free media add 156 ng of ARE:GFP, 52 ng of pFN21a-Halo-TEV-Keap1, and 52 ng of pcDNA3.1 myc-Nrf2 (260 ng total) followed by the addition of 0.78 μL of TransIT-2020. The lipoplex is mixed gently and incubated at room temperature for 20 min.
(iv) Treatment of cells with T-REX™ delivery photocaged precursor and photo-uncaging (TIMING: 7 hours). […]
In this flow cytometry assay, live cells are first gated by forward (size) and side scatter to give a general population of healthy cells (FIG. 26A). […] Analyzing this scatter group for green fluorescence (AR reporter) told a slightly different story to that painted by previous ensemble experiments (Parvez et al., “Substoichiometric Hydroxynonenylation of a Single Protein Recapitulates Whole-Cell-Stimulated Antioxidant Response,” J. Am. Chem. Soc. 137:10-13 (2015); Lin et al., “A Generalizable Platform for Interrogating Target- and Signal-Specific Consequences of Electrophilic Modifications in Redox-Dependent Cell Signaling,” J. Am. Chem. Soc. 137:6232-44 (2015), which are hereby incorporated by reference in their entirety).

[3] = molecular target: Ube2V2 (Homo sapiens, UniProt Q15819); experiment: T-REX targeted delivery efficiency, in-gel fluorescence (Cy5 Click); type: cell-based; parameters: the gene of interest (GOI) was PCR-amplified out from the original plasmid; expressed in transfected cells; host or cells: HEK 293T; conditions: HEK293T, Halo-Ube2V2
Protocol: HEK 293T cells were maintained in 1×MEM+ Glutamax™ media supplemented with 10% FBS, 1×NEAA, 1× sodium pyruvate and 1× Pen-Strep. Cells were grown in a humidified, 5% CO2 incubator at 37° C. For in-gel fluorescence analysis and western blot, ˜0.7-0.8×10^6 HEK 293T cells were seeded in 8 cm^2 tissue culture dishes. 24 h later, cells were transfected using TransIT-2020 transfection reagent per the manufacturer's recommendation. Subsequent steps were performed under dim light. 24-36 h post transfection, monolayer of cells were treated with 25 μM Ht-PreHNE in serum-free media and incubated for 2.5 h. Cells were gently rinsed with serum-free media three times every 30 min over the next 1.5 h. Meanwhile, UV lamps were turned on 10 min prior to UV irradiation time. For samples designated for light exposure, lids were removed from the dishes and cells were placed under 365 nm UV light for 5-8 min. The cells were harvested, washed two times with ice-cold PBS and frozen in liquid nitrogen.
All steps were performed in dark or under dim light. Cells from 8 cm^2 plates were lysed in 30 μL buffer containing 50 mM HEPES (pH 7.6), 150 mM NaCl, 1% Nonidet P-40, 1× Roche cOmplete, mini, EDTA-free protease inhibitor cocktail, and 0.3 mM TCEP by rapid freeze-thaw (×3). […] Protein concentration of the clarified lysate was determined using Bradford assay. […]

Ube2V2, sequence (Q15819 whole entry): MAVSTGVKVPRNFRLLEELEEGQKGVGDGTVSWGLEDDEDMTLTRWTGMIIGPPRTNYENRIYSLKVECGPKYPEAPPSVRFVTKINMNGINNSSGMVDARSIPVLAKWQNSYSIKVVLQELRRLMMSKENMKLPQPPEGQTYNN

With `CCCCCC(O)/C=C/C=O` (stereo not shown) [HNE, 4-hydroxynonenal] the DNA-synthesis stall [1] was “the extent of DNA-synthesis stall was similar to that observed under mitomycin-C treatment”, the “AR-driven GFP signal” value ([2]; T-REX delivery on Halo-Keap1) was “increase in AR in all but cells with the highest basal AR” and the “AR-driven GFP signal” value ([2]; whole-cell HNE treatment) was “strongly increases AR in a subset of cells”. For the same molecule, the “T-REX targeted delivery efficiency” value [3] was 15±6% and 15%.
